Assay results reported in patent US8883782B2, “Spiro-tetracyclic ring compounds as beta-secretase modulators and methods of use” (Amgen Inc., priority 2010, dated 2014).
pIC50: −log10 of the molar value.

Tests used:
[1] = system: Aβ40 in conditioned medium of cells stably expressing Amyloid Precursor Protein (APP); experiment: In vitro BACE cell-based assay (Aβ40 in conditioned medium, sandwich ELISA); settings: Homo sapiens, HEK293, average IC50; read-out: HEK cell assay
Outline: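 Quantification relied on pAb40/6E10 sandwich ELISA with Europium fluorescence counts, and IC50 was fitted versus concentration.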

[2] = target: Beta Secretase enzyme (BACE) (Homo sapiens, UniProt P56817); experiment: In vitro enzymatic BACE FRET (fluorescence resonance energy transfer) assay; assay type: biochemical; settings: average IC50, enzyme assay; read-out: BACE 1 FRET assay
Chain of Beta Secretase enzyme (BACE) (P56817 46-501, species assumed): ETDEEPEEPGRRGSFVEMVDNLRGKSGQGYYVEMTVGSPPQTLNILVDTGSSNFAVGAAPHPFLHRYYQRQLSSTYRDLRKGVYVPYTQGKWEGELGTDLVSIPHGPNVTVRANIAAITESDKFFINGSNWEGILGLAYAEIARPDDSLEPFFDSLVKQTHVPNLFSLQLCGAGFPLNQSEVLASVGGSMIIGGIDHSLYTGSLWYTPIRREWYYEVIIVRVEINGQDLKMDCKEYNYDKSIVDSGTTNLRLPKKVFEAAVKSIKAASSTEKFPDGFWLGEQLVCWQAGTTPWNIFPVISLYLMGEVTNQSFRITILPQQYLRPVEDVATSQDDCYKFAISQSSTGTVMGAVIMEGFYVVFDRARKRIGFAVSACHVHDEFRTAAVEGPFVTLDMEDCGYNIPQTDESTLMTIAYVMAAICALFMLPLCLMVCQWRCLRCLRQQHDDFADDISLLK
Outline: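 A peptide bearing a fluorophore and quencher across the cleavage site serves as substrate at 50 nM. Reactions proceed one hour in acidic acetate buffer (0.05 M, pH 4.2) containing 10% DMSO final and 100 uM genapol, then are terminated with Tris and read fluorimetrically.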

SMILES	pIC50 [1]	pIC50 [2]
N#Cc1cccc(-c2cc3c(cn2)Oc2c(F)cc(C4=CCOCC4)cc2[C@]32COC(N)=N2)c1 [Example 308, 3-((5S)-2′-amino-7-(3,6-dihydro-2H-pyran-4-yl)-9-fluorospiro[chromeno[2,3-c]pyridine-5,4′-[1,3]oxazol]-3-yl)benzonitrile]	6.93	8.03
CC1(COc2cc3c(cc2F)Oc2ccc(-c4cccc(Cl)c4)cc2[C@@]32COC(N)=N2)COC1 [Example 310, (4S)-7′-(3-chlorophenyl)-3′-fluoro-2′-((3-methyl-3-oxetanyl)methoxy)spiro[1,3-oxazole-4,9′-xanthen]-2-amine]	6.95	8.49
Cn1cc(-c2cc3c(cc2F)Oc2ccc(-c4cccc(Cl)c4)cc2[C@@]32COC(N)=N2)cn1 [Example 313, (4S)-7′-(3-chlorophenyl)-3′-fluoro-2′-(1-methyl-1H-pyrazol-4-yl)spiro[1,3-oxazole-4,9′-xanthen]-2-amine]	7.10	8.74
COC(C)(C)COc1cnc2c(c1)[C@@]1(COC(N)=N1)c1cc(-c3cccc(F)c3F)ccc1O2 [Example 314, (5R)-7-(2,3-difluorophenyl)-3-(2-methoxy-2-methylpropoxy)spiro[chromeno[2,3-b]pyridine-5,4′-[1,3]oxazol]-2′-amine]	5.44	5.72
COC(C)(C)COc1cnc2c(c1)[C@@]1(COC(N)=N1)c1cc(-c3cccc(C(F)(F)F)c3)ccc1O2 [Example 316, (5R)-3-(2-methoxy-2-methylpropoxy)-7-(3-(trifluoromethyl)phenyl)spiro[chromeno[2,3-b]pyridine-5,4′-[1,3]oxazol]-2′-amine]	5.68	6.41
COC(C)(C)COc1cnc2c(c1)[C@@]1(COC(N)=N1)c1cc(-c3cc(Cl)ccc3F)ccc1O2 [Example 318, (5R)-7-(5-chloro-2-fluorophenyl)-3-(2-methoxy-2-methylpropoxy)spiro[chromeno[2,3-b]pyridine-5,4′-[1,3]oxazol]-2′-amine]	5.74	6.44
NC1=N[C@@]2(CO1)c1cc(-c3cccnc3F)ccc1Oc1cc(F)c(C3=CCOCC3)cc12 [Example 320, (4S)-2′-(3,6-dihydro-2H-pyran-4-yl)-3′-fluoro-7′-(2-fluoro-3-pyridinyl)spiro[1,3-oxazole-4,9′-xanthen]-2-amine]	7.22	8.18
NC1=N[C@@]2(CO1)c1cc(-c3cccnc3F)ccc1Oc1cc(F)c(-c3ccncc3)cc12 [Example 321, (4S)-3′-fluoro-7′-(2-fluoro-3-pyridinyl)-2′-(4-pyridinyl)spiro[1,3-oxazole-4,9′-xanthen]-2-amine]	7.21	7.69
Cc1ccc(-c2ccc3c(c2)[C@@]2(COC(N)=N2)c2cc(C4=CCOCC4)cnc2O3)o1 [Example 324, (5S)-3-(3,6-dihydro-2H-pyran-4-yl)-7-(5-methyl-2-furanyl)spiro[chromeno[2,3-b]pyridine-5,4′-[1,3]oxazol]-2′-amine]	6.80	7.38
CC1(COc2cc3c(cc2F)Oc2ccc(-c4ccnc(Cl)c4)cc2[C@@]32COC(N)=N2)COC1 [Example 325, (4S)-7′-(2-chloro-4-pyridinyl)-3′-fluoro-2′-((3-methyl-3-oxetanyl)methoxy)spiro[1,3-oxazole-4,9′-xanthen]-2-amine]	6.59	7.30
CC1(COc2cc3c(cc2F)Oc2ccc(-c4ccc(F)nc4)cc2[C@@]32COC(N)=N2)COC1 [Example 326, (4S)-3′-fluoro-7′-(6-fluoro-3-pyridinyl)-2′-((3-methyl-3-oxetanyl)methoxy)spiro[1,3-oxazole-4,9′-xanthen]-2-amine]	7.21	7.71
Cc1cncc(-c2ccc3c(c2)[C@@]2(COC(N)=N2)c2cc(OCC4(C)COC4)c(F)cc2O3)c1 [Example 328, (4S)-3′-fluoro-2′-((3-methyl-3-oxetanyl)methoxy)-7′-(5-methyl-3-pyridinyl)spiro[1,3-oxazole-4,9′-xanthen]-2-amine]	7.34	7.63
COc1cncc(-c2ccc3c(c2)[C@@]2(COC(N)=N2)c2cc(OCC4(C)COC4)c(F)cc2O3)c1 [Example 329, (4S)-3′-fluoro-7′-(5-methoxy-3-pyridinyl)-2′-((3-methyl-3-oxetanyl)methoxy)spiro[1,3-oxazole-4,9′-xanthen]-2-amine]	7.28	8.05
CC1(COc2cc3c(cc2F)Oc2ccc(-c4cncc(C#N)c4)cc2[C@@]32COC(N)=N2)COC1 [Example 330, 5-((4S)-2-amino-6′-fluoro-7′-((3-methyl-3-oxetanyl)methoxy)spiro[1,3-oxazole-4,9′-xanthen]-2′-yl)-3-pyridinecarbonitrile]	7.47	8.06
CC1(COc2cc3c(cc2F)Oc2ccc(-c4cccc(C#N)c4)cc2[C@@]32COC(N)=N2)COC1 [Example 331, 3-((4S)-2-amino-6′-fluoro-7′-((3-methyl-3-oxetanyl)methoxy)spiro[1,3-oxazole-4,9′-xanthen]-2′-yl)benzonitrile]	7.07	7.86
Cn1cc(-c2ccc3c(c2)[C@@]2(COC(N)=N2)c2cc(OCC4(C)COC4)c(F)cc2O3)cn1 [Example 332, (4S)-3′-fluoro-2′-((3-methyl-3-oxetanyl)methoxy)-7′-(1-methyl-1H-pyrazol-4-yl)spiro[1,3-oxazole-4,9′-xanthen]-2-amine]	6.31	6.26
NC1=N[C@@]2(CO1)c1cc(-c3cccnc3F)ccc1Oc1cc(F)c(C3CCOCC3)cc12 [Example 334, (4S)-3′-fluoro-7′-(2-fluoro-3-pyridinyl)-2′-(tetrahydro-2H-pyran-4-yl)spiro[1,3-oxazole-4,9′-xanthen]-2-amine]	7.17	7.72
NC1=N[C@]2(CO1)c1cc(N3CCOCC3)ccc1Oc1cc(F)c(-c3cncnc3)cc12 [Example 335, (4S)-3′-fluoro-7′-(4-morpholinyl)-2′-(5-pyrimidinyl)spiro[1,3-oxazole-4,9′-xanthen]-2-amine]	7.36	7.79
CC(C)(C)C#Cc1cnc2c(c1)[C@@]1(COC(N)=N1)c1c(ccc(-c3cncnc3)c1F)O2 [Example 337, (5S)-3-(3,3-dimethyl-1-butyn-1-yl)-6-fluoro-7-(5-pyrimidinyl)spiro[chromeno[2,3-b]pyridine-5,4′-[1,3]oxazol]-2′-amine]	6.27	6.08

Compounds with a higher pIC50 [1], results first:

pIC50 [1]	pIC50 [2]	SMILES
7.71	8.41	Cn1cc(-c2cc3c(cc2F)Oc2ccc(-c4cccnc4F)cc2[C@@]32COC(N)=N2)cn1 [Example 311, (4S)-3′-fluoro-7′-(2-fluoro-3-pyridinyl)-2′-(1-methyl-1H-pyrazol-4-yl)spiro[1,3-oxazole-4,9′-xanthen]-2-amine]
7.52	8.60	CC1(C#Cc2cc3c(cc2F)Oc2ccc(-c4cccnc4F)cc2[C@@]32COC(N)=N2)COC1 [Example 312, (4S)-3′-fluoro-7′-(2-fluoro-3-pyridinyl)-2′-((3-methyl-3-oxetanyl)ethynyl)spiro[1,3-oxazole-4,9′-xanthen]-2-amine]
7.50	8.28	COC(C)(C)COc1cnc2c(c1)[C@]1(COC(N)=N1)c1cc(-c3cccc(F)c3F)ccc1O2 [Example 315, (5S)-7-(2,3-difluorophenyl)-3-(2-methoxy-2-methylpropoxy)spiro[chromeno[2,3-b]pyridine-5,4′-[1,3]oxazol]-2′-amine]
7.62	8.60	COC(C)(C)COc1cnc2c(c1)[C@]1(COC(N)=N1)c1cc(-c3cccc(C(F)(F)F)c3)ccc1O2 [Example 317, (5S)-3-(2-methoxy-2-methylpropoxy)-7-(3-(trifluoromethyl)phenyl)spiro[chromeno[2,3-b]pyridine-5,4′-[1,3]oxazol]-2′-amine]
8.28	9.15	COC(C)(C)COc1cnc2c(c1)[C@]1(COC(N)=N1)c1cc(-c3cc(Cl)ccc3F)ccc1O2 [Example 319, (5S)-7-(5-chloro-2-fluorophenyl)-3-(2-methoxy-2-methylpropoxy)spiro[chromeno[2,3-b]pyridine-5,4′-[1,3]oxazol]-2′-amine]
7.58	8.44	COc1cccc(-c2ccc3c(c2)[C@@]2(COC(N)=N2)c2cc(C4=CCOCC4)cnc2O3)c1 [Example 322, (5S)-3-(3,6-dihydro-2H-pyran-4-yl)-7-(3-methoxyphenyl)spiro[chromeno[2,3-b]pyridine-5,4′-[1,3]oxazol]-2′-amine]
7.81	8.85	COc1ccc(F)c(-c2ccc3c(c2)[C@@]2(COC(N)=N2)c2cc(C4=CCOCC4)cnc2O3)c1 [Example 323, (5S)-3-(3,6-dihydro-2H-pyran-4-yl)-7-(2-fluoro-5-methoxyphenyl)spiro[chromeno[2,3-b]pyridine-5,4′-[1,3]oxazol]-2′-amine]
7.67	8.39	CC1(COc2cc3c(cc2F)Oc2ccc(-c4cncc(F)c4)cc2[C@@]32COC(N)=N2)COC1 [Example 327, (4S)-3′-fluoro-7′-(5-fluoro-3-pyridinyl)-2′-((3-methyl-3-oxetanyl)methoxy)spiro[1,3-oxazole-4,9′-xanthen]-2-amine]
7.66	8.62	CC1(COc2cc3c(cc2F)Oc2ccc(-c4cncc(Cl)c4)cc2[C@@]32COC(N)=N2)COC1 [Example 333, (4S)-7′-(5-chloro-3-pyridinyl)-3′-fluoro-2′-((3-methyl-3-oxetanyl)methoxy)spiro[1,3-oxazole-4,9′-xanthen]-2-amine]
7.71	8.19	CC(C)(O)C#Cc1ccc2c(c1)[C@]1(COC(N)=N1)c1cc(-c3cncnc3)c(F)cc1O2 [Example 336, 4-((4R)-2-amino-6′-fluoro-7′-(5-pyrimidinyl)spiro[1,3-oxazole-4,9′-xanthen]-2′-yl)-2-methyl-3-butyn-2-ol]
